For 26 compounds, EC50 and Ki results are on record in patent publication US10501421B1, “Substituted benzimidazoles as modulators of Ras signaling” (VANDERBILT UNIVERSITY, priority 2017, dated 2019).

The structures appear in SMILES notation. Structures can show the parent of a compound that is named as a salt. Where only a bound is given, the exact number is not on record here.

Experiment [1] concerns the target Ras GEF SOS (Son of Sevenless) (Homo sapiens, UniProt Q07889). Kind of experiment: SOS-mediated nucleotide exchange on Ras (BODIPY-GDP fluorescence). In kind it is biochemical. The conditions noted are these: SOS-mediated exchange of BODIPY-GDP for GTP on Ras. The method in brief:
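Exchange rates were taken from single-exponential fits of the fluorescence time course as BODIPY-GDP on Ras was replaced by GTP. Compound went in first, then GTP and SOS. Mean rates plotted against concentration gave EC50 by four-parameter dose-response fitting.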

The target of a further experiment is T1, Son of Sevenless (SOS) (Homo sapiens, UniProt Q07889).
T1 sequence (Q07889 564-1049 limits assumed): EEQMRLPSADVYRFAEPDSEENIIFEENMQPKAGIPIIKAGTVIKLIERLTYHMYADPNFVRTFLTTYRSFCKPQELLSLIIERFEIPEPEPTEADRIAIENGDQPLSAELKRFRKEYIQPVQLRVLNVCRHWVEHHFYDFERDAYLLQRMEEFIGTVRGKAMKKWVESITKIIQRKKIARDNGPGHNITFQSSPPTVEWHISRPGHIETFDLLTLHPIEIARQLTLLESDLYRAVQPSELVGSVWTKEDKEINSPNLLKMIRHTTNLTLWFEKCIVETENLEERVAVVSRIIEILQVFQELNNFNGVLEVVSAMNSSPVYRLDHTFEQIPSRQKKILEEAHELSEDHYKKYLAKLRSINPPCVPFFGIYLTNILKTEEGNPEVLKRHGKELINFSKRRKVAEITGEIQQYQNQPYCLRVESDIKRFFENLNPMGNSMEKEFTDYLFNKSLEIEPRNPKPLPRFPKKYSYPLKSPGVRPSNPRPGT
Kind of experiment: Binding to SOS, fluorescence polarization anisotropy (FPA) probe displacement. The conditions noted are these: displacement of FITC-conjugated probe (Example 285), affinity calculated from IC50. Summed up:
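Test compounds were titrated against SOS pre-bound to a fluorescein-labelled probe, with anisotropy plotted versus compound concentration. Binding affinities were derived from IC50 values obtained by four-parameter dose-response fitting.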

Ras GEF SOS (Son of Sevenless), sequence (P01112 1-166 partner limits assumed, one chain of several): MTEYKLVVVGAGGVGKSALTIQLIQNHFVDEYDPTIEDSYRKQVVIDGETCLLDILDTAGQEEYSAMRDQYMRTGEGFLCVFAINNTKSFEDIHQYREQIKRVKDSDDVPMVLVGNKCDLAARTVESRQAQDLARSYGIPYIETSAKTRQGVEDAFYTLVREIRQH

Regarding `CCc1cc2c(cc1C)nc(N1CCNCC1)n2Cc1ccc(F)c(Cl)c1` [Example 66, 1-(3-chloro-4-fluorobenzyl)-6-ethyl-5-methyl-2-(piperazin-1-yl)-1H-benzo[d]imidazole trifluoroacetate], the EC50 – broadly, the concentration that produces a half-maximal response – in experiment [1] is 5 to 30 µM. Besides, on Son of Sevenless (SOS), the Ki (usually a dissociation constant, usually derived from enzyme kinetics or from competition with a known ligand) is more than 5 µM.
On to `CCc1cc2c(cc1C)nc(N1CCNCC1)n2Cc1ccc(F)c(CC)c1` [Example 67, 6-ethyl-1-(3-ethyl-4-fluorobenzyl)-5-methyl-2-(piperazin-1-yl)-1H-benzo[d]imidazole trifluoroacetate], for which, in experiment [1], the EC50 was in the range of 5 to 30 µM. The inhibition constant (Ki) at Son of Sevenless (SOS) is more than 5 µM.
On to `Cc1cc2nc(NCCN)n(Cc3ccc(F)c(Cl)c3)c2cc1Cl` [Example 69, N^1-(6-chloro-1-(3-chloro-4-fluorobenzyl)-5-methyl-1H-benzo[d]imidazol-2-yl)ethane-1,2-diamine trifluoroacetate], for which the EC50 in experiment [1] was less than 1 µM. In addition, the Ki at Son of Sevenless (SOS) was 0.5 to 1 µM.
Consider `Cc1cc2c(cc1Br)nc(N1CCNCC1)n2Cc1ccc(F)c(Cl)c1` [Example 70, 5-bromo-1-(3-chloro-4-fluorobenzyl)-6-methyl-2-(piperazin-1-yl)-1H-benzo[d]imidazole trifluoroacetate], for which the EC50 in experiment [1] lay within 1 to 5 µM. For the same compound, the Ki at Son of Sevenless (SOS) was 1 to 5 µM.
On to `NCCNc1nc2ccc(C(F)(F)F)cc2n1Cc1ccc(F)c(Cl)c1` [Example 72, N^1-(1-(3-chloro-4-fluorobenzyl)-6-(trifluoromethyl)-1H-benzo[d]imidazol-2-yl)ethane-1,2-diamine trifluoroacetate], for which the EC50 in experiment [1] was 1 to 5 µM. The Ki on Son of Sevenless (SOS) was 1 to 5 µM.
On to `Fc1ccc(Cn2c(N3CCNCC3)nc3ccc(Cl)cc32)cc1Cl` [Example 73, 6-chloro-1-(3-chloro-4-fluorobenzyl)-2-(piperazin-1-yl)-1H-benzo[d]imidazole trifluoroacetate], for which the EC50 in experiment [1] was less than 1 µM. The Ki at Son of Sevenless (SOS) is 0.5 to 1 µM.
The matching figures for `NCCNc1nc2ccc(Cl)cc2n1Cc1ccc(F)c(Cl)c1` [Example 74, N^1-(6-chloro-1-(3-chloro-4-fluorobenzyl)-1H-benzo[d]imidazol-2-yl)ethane-1,2-diamine trifluoroacetate]: less than 1 µM and 0.5 to 1 µM.
In turn, `Nc1ccccc1-c1cccc2c1nc(N1CCNCC1)n2Cc1ccc(F)c(Cl)c1` [Example 83, 2-(1-(3-chloro-4-fluorobenzyl)-2-(piperazin-1-yl)-1H-benzo[d]imidazol-4-yl)aniline trifluoroacetate] gave an EC50 in experiment [1] of 1 to 5 µM. In addition, the Ki at Son of Sevenless (SOS) was 1 to 5 µM.
Compound `Fc1cc(F)cc(Cn2c(N3CCNCC3)nc3c(-c4ccccc4F)cccc32)c1` [Example 90, 1-(3,5-difluorobenzyl)-4-(2-fluorophenyl)-2-(piperazin-1-yl)-1H-benzo[d]imidazole] came in with an EC50 in experiment [1] of 1 to 5 µM. Moreover, the Ki on Son of Sevenless (SOS) is 1 to 5 µM.
Compound `NCCc1cccc2c1nc(N1CCNCC1)n2Cc1ccc(F)c(Cl)c1` [Example 98, 2-(1-(3-chloro-4-fluorobenzyl)-2-(piperazin-1-yl)-1H-benzo[d]imidazol-4-yl)ethan-1-amine trifluoroacetate] yielded an EC50 in experiment [1] of 1 to 5 µM. In addition, the Ki on Son of Sevenless (SOS) was more than 5 µM.
`Cc1cc2c(nc(N3CCNCC3)n2Cc2ccc(F)c(Cl)c2)c(CCN)c1C` [Example 101, 2-(1-(3-chloro-4-fluorobenzyl)-5,6-dimethyl-2-(piperazin-1-yl)-1H-benzo[d]imidazol-4-yl)ethan-1-amine trifluoroacetate]: in experiment [1], the EC50 was in the range of 1 to 5 µM. Also, the Ki at Son of Sevenless (SOS) was 1 to 5 µM.
On to `Cc1cc2c(nc(N3CCNCC3)n2Cc2cc(C)c(F)c(C)c2)c(CCN)c1C` [Example 102, 2-(1-(4-fluoro-3,5-dimethylbenzyl)-5,6-dimethyl-2-(piperazin-1-yl)-1H-benzo[d]imidazol-4-yl)ethan-1-amine trifluoroacetate], for which, in experiment [1], the EC50 was in the range of 1 to 5 µM. Further, on Son of Sevenless (SOS), the Ki was more than 5 µM.
The matching figures for `Cc1cc(C2=CCNCC2)c2nc(N3CCNCC3)n(Cc3cc(C)c(F)c(C)c3)c2c1` [Example 103, 1-(4-fluoro-3,5-dimethylbenzyl)-6-methyl-2-(piperazin-1-yl)-4-(1,2,3,6-tetrahydropyridin-4-yl)-1H-benzo[d]imidazole]: 1 to 5 µM and less than 0.5 µM.
The matching figures for `Cc1cc2c(nc(N3CCNCC3)n2Cc2ccc(Cl)cc2)c(-c2ccccc2)c1C` [Example 105, 1-(4-chlorobenzyl)-5,6-dimethyl-4-phenyl-2-(piperazin-1-yl)-1H-benzo[d]imidazole trifluoroacetate]: 1 to 5 µM and more than 5 µM.
`CCc1cc(Cn2c(NCCN)nc3c(-c4ccccc4Cl)c(C)c(C)cc32)ccc1Cl` [Example 112, N^1-(1-(4-chloro-3-ethylbenzyl)-4-(2-chlorophenyl)-5,6-dimethyl-1H-benzo[d]imidazol-2-yl)ethane-1,2-diamine trifluoroacetate] showed an EC50 in experiment [1] of 5 to 30 µM. In addition, the Ki at Son of Sevenless (SOS) was 1 to 5 µM.
The matching figures for `CCc1cc(Cn2c(NCCN)nc3c(-c4c(C)nn(C)c4C)c(C)c(C)cc32)ccc1Cl` [Example 115, N^1-(1-(4-chloro-3-ethylbenzyl)-5,6-dimethyl-4-(1,3,5-trimethyl-1H-pyrazol-4-yl)-1H-benzo[d]imidazol-2-yl)ethane-1,2-diamine trifluoroacetate]: 5 to 30 µM and more than 5 µM.
Turning to `Cc1ccccc1-c1c(C)c(C)cc2c1nc(NCCN)n2Cc1cccc(C#N)c1` [Example 116, 3-((2-((2-aminoethyl)amino)-5,6-dimethyl-4-(o-tolyl)-1H-benzo[d]imidazol-1-yl)methyl)benzonitrile trifluoroacetate], the EC50 in experiment [1] is 1 to 5 µM. Further, at Son of Sevenless (SOS), the Ki was 1 to 5 µM.
With `Cc1cc(-c2c(C)nn(C)c2C)c2nc(N3CCNCC3)n(Cc3ccc(F)c(Cl)c3)c2c1` [Example 121, 1-(3-chloro-4-fluorobenzyl)-6-methyl-2-(piperazin-1-yl)-4-(1,3,5-trimethyl-1H-pyrazol-4-yl)-1H-benzo[d]imidazole trifluoroacetate], the EC50 in experiment [1] was less than 1 µM. Also, the Ki on Son of Sevenless (SOS) was less than 0.5 µM.
Take `Cc1cc(Cn2c(N3CCNCC3)nc3c(-c4ccc(CN)cc4)cc(Cl)cc32)cc(C)c1F` [Example 122, (4-(6-chloro-1-(4-fluoro-3,5-dimethylbenzyl)-2-(piperazin-1-yl)-1H-benzo[d]imidazol-4-yl)phenyl)methanamine trifluoroacetate]: the EC50 in experiment [1] is 1 to 5 µM. Also, the Ki at Son of Sevenless (SOS) is 0.5 to 1 µM.
The matching figures for `Cc1cc(Cn2c(N3CCNCC3)nc3c(C#Cc4ccccc4)cc(Cl)cc32)cc(C)c1F` [Example 123, 6-chloro-1-(4-fluoro-3,5-dimethylbenzyl)-4-(phenylethynyl)-2-(piperazin-1-yl)-1H-benzo[d]imidazole trifluoroacetate]: 1 to 5 µM and 1 to 5 µM.
The matching figures for `CN(CCO)Cc1cc(Cl)cc2c1nc(N1CCNCC1)n2Cc1ccc(F)c(Cl)c1` [Example 134, 2-(((6-chloro-1-(3-chloro-4-fluorobenzyl)-2-(piperazin-1-yl)-1H-benzo[d]imidazol-4-yl)methyl)(methyl)amino)ethan-1-ol trifluoroacetate]: less than 1 µM and 0.5 to 1 µM.
The matching figures for `CN(CCCO)Cc1cc(Cl)cc2c1nc(N1CCNCC1)n2Cc1ccc(F)c(Cl)c1` [Example 135, 3-(((6-chloro-1-(3-chloro-4-fluorobenzyl)-2-(piperazin-1-yl)-1H-benzo[d]imidazol-4-yl)methyl)(methyl)amino)propan-1-ol trifluoroacetate]: less than 1 µM and 1 to 5 µM.
For `CCN(CC)Cc1cc(Cl)cc2c1nc(N1CCNCC1)n2Cc1ccc(F)c(Cl)c1` [Example 136, N-((6-chloro-1-(3-chloro-4-fluorobenzyl)-2-(piperazin-1-yl)-1H-benzo[d]imidazol-4-yl)methyl)-N-ethylethanamine trifluoroacetate], the EC50 in experiment [1] was less than 1 µM. At Son of Sevenless (SOS), the Ki was 1 to 5 µM.
The matching figures for `NCCNCc1cc(Cl)cc2c1nc(N1CCNCC1)n2Cc1ccc(F)c(Cl)c1` [Example 137, N^1-((6-chloro-1-(3-chloro-4-fluorobenzyl)-2-(piperazin-1-yl)-1H-benzo[d]imidazol-4-yl)methyl)ethane-1,2-diamine trifluoroacetate]: 1 to 5 µM and 1 to 5 µM.
In experiment [1], `Cc1cc(-c2ccccc2C)c2ncn(Cc3cc(C)c(F)c(C)c3)c2c1` [Example 142, 1-(4-fluoro-3,5-dimethylbenzyl)-6-methyl-4-(o-tolyl)-1H-benzo[d]imidazole] returned an EC50 of 30 to 100 µM. At Son of Sevenless (SOS), the Ki is more than 5 µM.
As to `Cc1cc(-c2ccccc2C)c2ncn(Cc3ccc(F)c(Cl)c3)c2c1` [Example 143, 1-(3-chloro-4-fluorobenzyl)-6-methyl-4-(o-tolyl)-1H-benzo[d]imidazole], the half-maximal effective concentration (EC50) in experiment [1] lay in the range of 5 to 30 µM. Further, the Ki on Son of Sevenless (SOS) was more than 5 µM.
